Source: ChEMBL document CHEMBL5344440, “Fragment Merging, Growing, and Linking Identify New Trypanothione Reductase Inhibitors for Leishmaniasis” (J Med Chem, 2024)
Each block holds one molecule with its values, some of them ahead of it.

Columns and labels:
Leishmania infantum [1] = test: Antileishmanial activity against amastigote form of Leishmania infantum infected in BALB/c mouse macrophages assessed as reduction in parasite infection at 12.5 uM measured after 72 hrs by Giemsa staining based optical microscopy relative to control; type: functional
[2] = Selectivity index, ratio of CC50 for cytotoxicity against human THP-1 cells to EC50 for antileishmanial activity against axenic amastigote form of Leishmania infantum MHOM/TN/80/IPT1; type: toxicity, cell-based; conditions: read-out: Ratio CC50/EC50
[3] = tested on: glutathione reductase versus Leishmania infantum trypanothione reductase; test: Selectivity index, ratio of IC50 for inhibition of human glutathione reductase expressed in Escherichia coli cells to IC50 for inhibition of Leishmania infantum Trypanothione reductase expressed in Escherichia coli BL21 (DE3); type: toxicity; conditions: read-out: Ratio IC50
THP-1 = test: (§1) Cytotoxicity against PMA-differentiated human THP-1 cells assessed as reduction in cell viability measured after 72 hrs by MTT assay; type: toxicity, cell-based; conditions: thp-1, 72 h
Peritoneal macrophage = test: (§2) Cytotoxicity against BALB/c mouse peritoneal macrophages assessed as reduction in cell viability measured after 72 hrs by MTT assay; type: toxicity, cell-based; conditions: peritoneal macrophage, 72 h
[4] = target: Trypanothione reductase (Leishmania infantum) (UniProt A4HSF7); test: Inhibition of Leishmania infantum Trypanothione reductase expressed in Escherichia coli BL21 (DE3) assessed as enzyme residual activity using trypanothione as substrate at 100 uM preincubated for 3 mins followed NADPH addition by spectrophotometric analysis
Leishmania infantum [5] = test: Antileishmanial activity against axenic amastigote form of Leishmania infantum MHOM/TN/80/IPT1 assessed as parasite growth inhibition measured after 72 hrs by MTT assay; type: functional, organism-based; conditions: MHOM/TN/80/IPT1, 72 h
[6] = as §1; type: toxicity, cell-based; conditions: PMA-differentiated THP-1 cells
[7] = target: Trypanothione reductase (Leishmania infantum) (UniProt A4HSF7); test: Inhibition of Leishmania infantum Trypanothione reductase expressed in Escherichia coli BL21 (DE3) assessed as enzyme residual activity using trypanothione as substrate at 10 uM preincubated for 3 mins followed NADPH addition by spectrophotometric analysis
[8] = as §2; type: toxicity, cell-based, Peritoneal macrophage; conditions: BALB/c, peritoneal macrophages

Chain of Trypanothione reductase (Leishmania infantum) (A4HSF7 as listed by the source): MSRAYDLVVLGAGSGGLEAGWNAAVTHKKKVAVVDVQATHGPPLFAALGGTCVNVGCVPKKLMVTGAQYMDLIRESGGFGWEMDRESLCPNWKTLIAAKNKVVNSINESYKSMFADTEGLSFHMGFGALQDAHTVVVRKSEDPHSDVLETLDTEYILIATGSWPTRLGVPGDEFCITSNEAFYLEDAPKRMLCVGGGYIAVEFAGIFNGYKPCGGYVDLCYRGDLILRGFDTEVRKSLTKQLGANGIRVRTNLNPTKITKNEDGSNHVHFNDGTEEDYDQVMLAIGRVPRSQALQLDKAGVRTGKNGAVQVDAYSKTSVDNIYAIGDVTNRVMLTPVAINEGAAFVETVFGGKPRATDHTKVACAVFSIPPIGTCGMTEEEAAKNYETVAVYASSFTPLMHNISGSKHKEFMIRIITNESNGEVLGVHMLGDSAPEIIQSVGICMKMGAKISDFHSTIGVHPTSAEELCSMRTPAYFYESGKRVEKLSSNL

SMILES: O=C(NCCc1ccc(F)cc1)c1ccc(CNC(=O)N2CC[N+](CCCc3ccccc3)(Cc3ccc(Cl)c(Cl)c3)CC2)o1
inhibition at 12.5 µM (Leishmania infantum [1]): 40%

SMILES: O=C(O)c1ccc(N(Cc2ccc(C(=O)NCCc3ccc(F)cc3)o2)C(=O)N2CCN(CCCc3ccccc3)CC2)cc1
selectivity ratio [2]: > 2

SMILES: O=C(NCCc1ccc(F)cc1)c1ccc(CN(C(=O)N2CCN(CCCN3c4ccccc4Sc4ccc(Cl)cc43)CC2)c2ccc(F)cc2)o1
selectivity ratio [3]: 0.4
CC50 (THP-1): 6.5 µM
CC50 (Peritoneal macrophage): 9.1 µM
selectivity ratio [2]: 0.5

Activity [4]: 77.7%
SMILES: CC(=O)N1CCN(CCCc2ccccc2)CC1

SMILES: C[C@@H]1[C@H](O)[C@@H](C)/C=C/C=C/C=C/C=C/C=C/C=C/C=C/[C@H](O[C@@H]2O[C@H](C)[C@@H](O)[C@H](N)[C@@H]2O)C[C@@H]2O[C@](O)(C[C@@H](O)C[C@@H](O)[C@H](O)CC[C@@H](O)C[C@@H](O)CC(=O)O[C@H]1C)C[C@H](O)[C@H]2C(=O)O [AMPHOTERICIN B]
EC50 (Leishmania infantum [5]): 0.5 µM

Activity [7]: 94.1%
SMILES: O=C(NCCc1ccccc1)c1ccc(CN(C(=O)N2CCN(Cc3ccc(Cl)c(Cl)c3)CC2)c2ccc(F)cc2)o1
EC50 (Leishmania infantum [5]): 10.3 µM
CC50 at 72 h [6]: 11.7 µM
CC50 at 72 h [8]: 14.4 µM
selectivity ratio [2]: 1.1

Activity [4]: 85.3%
SMILES: O=C(NCCc1ccc(F)cc1)c1ccco1

Activity [7]: 70.8%
SMILES: O=C(NCCc1ccc(F)cc1)c1ccc(CN(C(=O)N2CCN(CCCN3c4ccccc4Sc4ccc(C(F)(F)F)cc43)CC2)c2ccc(F)cc2)o1
EC50 (Leishmania infantum [5]): 13 µM
CC50 at 72 h [6]: 23.4 µM
CC50 at 72 h [8]: 30.7 µM
selectivity ratio [2]: 1.8
